The values that follow come from US11530216B2, “Deuterated colony stimulating factor-1 receptor (CSF-1R) inhibitors” (Genzyme Corporation, priority 2020, dated 2022).

SMILES strings stand for the structures. Where two headings read alike, the source gives them in different places. Some results are limits rather than exact numbers.

The nature of data set [1]: Human hepatocyte intrinsic clearance. The note with it: human, hepatocytes. The class given is in vitro ADME. The procedure: Incubations were performed in 0.5 million hepatocytes cells/mL at 1 μM concentration of test compound in duplicate with rat, human, dog, monkey, or mouse hepatocytes, and the concentration-time course of test compound depletion was determined after withdrawing samples from the incubation at assay time points followed by liquid chromatography with tandem mass spectrometry analysis. An organic solvent was used to terminate incubations.
These available known AO substrates along with the test compounds were analyzed using three in vitro systems (pooled human liver cytosol, liver S-9 fractions and human hepatocytes isolated from livers perfused with HTK media). Scaled unbound intrinsic clearances were calculated for the test compounds/new chemical entities and were compared to the in vivo unbound intrinsic clearances of the known AO substrates.

The test system of another data set is C57BL/6 EAE model. Put plainly: MOG-induced EAE model. The class given is in vivo, mouse. The following applies: 15 mg/kg p.o. BID for 7 days; for mean disease scores: female C57BL/6J mice. The method, then:
Experimental autoimmune encephalomyelitis (EAE) is primarily used as a non-clinical model of autoimmune inflammatory diseases of the CNS, and resembles many aspects of human multiple sclerosis. The myelin oligodendrocyte glycoprotein (MOG)-induced EAE model is ideal for exploring this immune-mediated mechanism of neuroinflammation and demyelination.
Test articles: • MOG35-55 peptide (New England Peptides, lot #BU01787)—250 μg/mouse in 4 mg/mL complete Freund's adjuvant (CFA; Chondrex Inc, Cat #7009, lot #190446) Bordetella pertussis toxin (PTX, Sigma, cat #P7208-5OUG, lot #MKCL 1350)—280 ng/mouse in 200 μL PBS • CSF-1R inhibitors—15 mg/kg • Vehicle—0.5% methylcellulose/0.2% Tween-80 Delivery: • MOG peptide & CFA: subcutaneous injection to 2 sites in the hind flank (100 μL/site). • Bordetella pertussis toxin: i.v. injection of 280 ng/mouse in 200 μL PBS on Day 0 and 2. • CSF1R inhibitor: oral gavage every 12 hours • Vehicle: oral gavage every 12 hours Time points: • Day 0—Administer MOG peptide in CFA and PTX to Groups 1-3 • Day 2—Administer PTX by i.v. to Groups 1-3 • Day 9—Begin daily scoring of mice • Day 11-14—Randomize mice to groups when reach score of 1 and begin treatment • Day ˜18-21—After 7 days of treatment, perfuse mice and euthanize animals.
Mice were clinically assessed daily for signs of paralytic disease and weighed intermittently to document weight loss. At study termination, ½ brain was fixed for histology and brain/liver/plasma were collected for exposure. Spinal cord and whole blood was collected for flow cytometry. Additional plasma aliquots were saved for follow up analysis.
Female C57BL/6J mice were immunized with an emulsion of MOG35-55 peptide (250 μg/mouse) in complete Freund's adjuvant (CFA). […] Following EAE induction, the mice were monitored daily for paralytic symptoms and scored for their clinical presentation using a progressive scoring system (Score 0: no disease; Score 1: flaccid tail; Score 2: hindlimb weakness; Score 3: hindlimb paralysis; Score 4: Front limb weakness or partial paralysis; Score 5: death). […]

In a further data set the target is CYP3A4 (Homo sapiens (Human), UniProt P08684). Briefly: CYP inhibition in human liver microsomes, CYP3A4. The class given is in vitro ADME. The procedure:
The objective of this assay method was to determine the inhibitory potential of test articles, in vitro, against specific cytochrome P450 (CYP) enzymes, using human liver microsomes (HLMs). The test compounds were diluted from pure DMSO stocks to a final test concentration range of 10 μM-0.07 μM in a 0.5% DMSO solution. […] After incubation, the samples were extracted, and protein precipitated in acetonitrile containing 0.1% formic acid. The samples were centrifuged to remove excess protein, and were analyzed by LDTD/MS/MS to determine IC50 values. Key concentrations of substrates were as follows: CYP2D6 Substrate—Dextromethorphan at 10 μM. CYP3A4 Substrates—Testosterone at 60 μM, and Midazolam at 2 μM. Dextromethorphan and testosterone were incubated with the test compounds for 30 minutes each. Midazolam was incubated with the test compounds for 10 minutes.
Background: Liver microsomes are a subcellular fraction often used to study metabolism.

Data set [2] concerns iCell microglia (human iPSC derived microglia). Briefly: CellTiter Glo 2.0 viability assay, iCell human microglia, CSF1 stimulation. The class given is cell-based. The following applies: 1.5625-200 nM, CSF1 100 ng/mL 24 hours. The procedure: iCell microglia (human iPSC derived microglia) were acquired from FujiFilm (cat #C1110, lot #105458). These cells were thawed and maintained in iCell Microglia Complete Media according the manufacture instructions. For this assay, iCell microglia were resuspended at a concentration of 5×10^5 cells/mL and 100 μL of this cell suspension was added to the inner 60 wells of a 96-well plate. iCell microglia were allowed to rest overnight at 37° C., 5% CO2. The following evening, the media was removed and replaced with Neurobasal Media (Gibco, cat #21103049) containing B27 supplement (Gibco, cat #17504044). Again, cells were allowed to rest overnight at 37° C., 5% CO2. […] Cells were then stimulated with 100 ng/mL recombinant human CSF1 for 24 hours. After stimulation, the culture supernatant was removed from each well and aliquoted into two different 96-well plates for subsequent ELISA assays.
Cell viability was determined using the CellTiter Glo 2.0 Luminescent Cell Viability Assay (Promega, cat #G9242). […] 100 μL was transferred from each well to a white plate and luminescence was read immediately on the FlexStation3 Multi-Mode Microplate Reader (Molecular Devices, cat #Flex3) with SoftMax Pro Software.
iCell microglia (human iPSC derived microglia) were plated at 50,000 cells per well and rested overnight. […] Cell viability was assessed utilizing Promega's Cell Titer Glo Assay Kit. […]
For orientation: Cellular ATP, detected with luciferase, serves as a proxy for viable cell number.

[3] abbreviates: midazolam 2 μM, 10 min, read-out: CYP inhibition mean IC50 (INH) Isoform: CYP3A4 Substrate: midazolam.
The mark [4] stands for this setting: testosterone 60 μM, 30 min, read-out: CYP inhibition mean IC50 (INH) Isoform: CYP3A4 Substrate: testosterone.

CYP3A4, sequence (P08684 whole entry): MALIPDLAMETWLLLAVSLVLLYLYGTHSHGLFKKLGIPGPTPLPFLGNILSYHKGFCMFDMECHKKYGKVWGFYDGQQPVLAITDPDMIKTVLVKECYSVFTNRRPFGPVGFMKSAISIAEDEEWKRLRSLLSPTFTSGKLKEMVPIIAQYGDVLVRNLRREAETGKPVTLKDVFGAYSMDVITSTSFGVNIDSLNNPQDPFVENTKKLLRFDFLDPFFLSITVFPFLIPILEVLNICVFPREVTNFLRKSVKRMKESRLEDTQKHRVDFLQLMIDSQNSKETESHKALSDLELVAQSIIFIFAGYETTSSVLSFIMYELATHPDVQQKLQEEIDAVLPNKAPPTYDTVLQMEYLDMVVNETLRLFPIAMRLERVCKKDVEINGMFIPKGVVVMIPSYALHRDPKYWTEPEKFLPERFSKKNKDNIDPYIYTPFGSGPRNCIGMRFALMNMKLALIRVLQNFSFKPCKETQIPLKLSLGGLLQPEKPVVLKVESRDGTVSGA

One may read the CLint scaled as the capacity of the preparation to metabolise the compound, expressed as a volume cleared per time. A higher CLint scaled goes with rapid turnover. As a reminder, the hepatocyte CLint is the rate of metabolic loss divided by the concentration. The term IC50 denotes the concentration that inhibits the measured activity by half. Consider `COc1ccc(C2Oc3c(OC)cc(Cn4cnc5cccnc54)cc3O[C@H]2C)cn1` (stereo partly drawn) [Compound 24], for which, in data set [1], the CLint scaled at 1 μM stood at 32.3 mL/min/kg and the hepatocyte CLint at 1 μM came to 12.7 µL/min/1e6 cells. Further, the mean disease scores entry in the data set with C57BL/6 EAE model is “significantly mean disease scores”. In addition, the half-maximal inhibitory concentration (IC50) on CYP3A4 (setting [3]) was > 10 µM. At CYP3A4 (setting [4]), the IC50 was > 10 µM.
Turning to `[2H]c1nc2cccnc2n1Cc1cc(OC)c2c(c1)O[C@@H](C)[C@H](c1ccc(OC)nc1)O2` [Compound 6, 3-(((2S,3S)-8-methoxy-2-(6-methoxypyridin-3-yl)-3-methyl-2,3-dihydrobenzo[b][1,4]dioxin-6-yl)methyl)-3H-imidazo[4,5-b]pyridine-2-d], in data set [1], the intrinsic metabolic clearance (CLint scaled) at 1 μM was determined as 20 mL/min/kg and the hepatocyte CLint at 1 μM amounted to 7.88 µL/min/1e6 cells. In addition, the paralytic symptoms entry with C57BL/6 EAE model (compared with Compound 24) was “ameliorated paralytic symptoms to a surprisingly greater extent than nondeuterated Compound 24”. Further, the mean disease scores result in the data set on C57BL/6 EAE model was “significantly mean disease scores”. The IC50 at CYP3A4 (setting [3]) is > 10 µM. Moreover, the IC50 at CYP3A4 (setting [4]) was > 10 µM. Moreover, the human microglia viability entry in data set [2] is listed as “did not impact human microglia viability at the concentrations assessed”.
